Data: patent US10556945B2, “Antagonist antibodies directed against calcitonin gene-related peptide and methods using same” (Teva Pharmaceuticals International GmbH, priority 2014, dated 2020)
Marks after values point to notes of the source that are not given here. Each block holds one molecule with its values, some of them ahead of it.

How the values were obtained:
[1] = tested on: middle meningeal artery (MMA) dilation evoked by electrical field stimulation; experiment: Dural artery (closed cranial window) assay; format: in vivo, rat
Procedure: Closed Cranial Window Model: The purpose of this experiment was to determine the acute effect of anti-CGRP antagonist antibodies and compare it with the acute effect of the CGRP receptor antagonist BIBN4096BS. Experiments were carried out as previously described (Williamson et al., Cephalalgia 17(4):518-24 (1997)) with the following modifications. Sprague Dawley rats (300-400 g) were anesthetized with 70 mg/kg i.p. pentobarbital. Anesthesia was maintained with 20 mg/kg/hr i.v. pentobarbital. Rats were cannulated through the jugular vein for delivery of all drugs. Blood pressure was monitored with a probe (mikro-tip catheter, Millar Instruments) threaded through the femoral artery into the abdominal aorta. The rats were tracheotomized and breathing rate was maintained at 75 breaths per minute at a volume of 3.5 mL. After fixating the head in a stereotactic instrument and removing the scalp, a 2×6 mm window in the left parietal area just lateral to the sagittal suture was made by thinning the bone with a dental drill. Using a micromanipulator, a platinum bipolar electrode was lowered onto the surface and covered with heavy mineral oil. Lateral to the electrode window another window of 5×6 mm was created and filled with heavy mineral oil through which the diameter of a branch of the middle meningeal artery (MMA) was continuously monitored with a CCD camera and a video dimension analyzer (Living Systems). The rats were rested for no less than 45 minutes after the preparation. A baseline response to electrical stimulation was established (15 V, 10 hz, 0.5 ms pulses, 30 seconds) and then rats were dosed i.v. with experimental compound (10 mg/kg mu7E9, 300 μg/kg BIBN4096BS or PBS 0.01% Tween 20). Additional electrical stimulations were done at 5 (BIBN4096BS), 30, 60, 90 and 120 minutes after dosing. All data was recorded using chart software (ADInstruments).
The purpose of this experiment was to determine if the anti CGRP antibody could still block electrically stimulated MMA dilation 7 days after dosing. Preparation of the rats was identical to the above described acute experiment (Example 6) with the following exceptions. […] It was impossible to establish a baseline dilation response to electrical stimulation prior to dosing as in the acute experiment so the antibody groups were compared to dilation of the MMA in a vehicle (PBS, 0.01% Tween 20) dosed control group. After the rats were allowed to rest for no less than 45 minutes the dura was electrically stimulated at 30 minute intervals. Stimulations were at 2.5V, 5V, 10V, 15V and 20V, all at 10 Hz, 0.5 ms pulses for 30 seconds.

[2] = tested on: CGRP activity (skin blood flow after saphenous nerve stimulation); experiment: Skin vasodilatation induced by stimulation of rat saphenous nerve; format: in vivo; conditions: for blood flow increase stimulated by electronic pulses on saphenous nerve: compared to vehicle
Procedure: To test antagonist activity of anti-CGRP antibodies, effect of the antibodies on skin vasodilatation by stimulation of rat saphenous nerve was tested using a rat model described previously. Escott et al., Br. J. Pharmacol. 110:772-776, 1993. In this rat model, electrical stimulation of saphenous nerve induces release of CGRP from nerve endings, resulting in an increase in skin blood flow. Blood flow in the foot skin of male Sprague Dawley rats (170-300 g, from Charles River Hollister) was measured after saphenous nerve stimulation. Rats were maintained under anesthesia with 2% isoflurane. Bretylium tosylate (30 mg/kg, administered i.v.) was given at the beginning of the experiment to minimize vasoconstriction due to the concomitant stimulation of sympathetic fibers of the saphenous nerve. Body temperature was maintained at 37° C. by the use of a rectal probe thermostatically connected to a temperature controlled heating pad. Compounds including antibodies, positive control (CGRP 8-37), and vehicle (PBS, 0.01% Tween 20) were given intravenously through the right femoral vein, except for the experiment shown in FIG. 3, the test compound and the control were injected through tail vein, and for experiments shown in FIGS. 2A and 2B, antibodies 4901 and 7D11 were injected intraperitoneally (IP). Positive control compound CGRP 8-37 (vasodilatation antagonist), due to its short half-life, was given 3-5 min before nerve stimulation at 400 nmol/kg (200 μl). Tan et al., Clin. Sci. 89:656-73, 1995. The antibodies were given in different doses (1 mg/kg, 2.5 mg/kg, 5 mg/kg, 10 mg/kg, and 25 mg/kg).
For experiments shown in FIGS. 2A and 2B, antibody 4901 (25 mg/kg), antibody 7D11 (25 mg/kg), or vehicle control (PBS with 0.01% Tween 20) was administered intraperitoneally (IP) 72 hours before the electrical pulse stimulation. For experiment shown in FIG. 3, antibody 4901 (1 mg/kg, 2.5 mg/kg, 5 mg/kg, or 25 mg/kg) or vehicle control (PBS with 0.01% Tween 20) was administered intravenously 24 hours before the electrical pulse stimulation. After administration of the antibodies or vehicle control, the saphenous nerve of the right hindlimb was exposed surgically, cut proximally and covered with plastic wrap to prevent drying. A laser Doppler probe was placed over the medio-dorsal side of the hindpaw skin, which is the region innervated by the saphenous nerve. Skin blood flow, measured as blood cell flux, was monitored with a laser Doppler flow meter. When a stable base-line flux (less than 5% variation) was established for at least 5 min, the nerve was placed over platinum bipolar electrodes and electrically stimulated with 60 pulses (2 Hz, 10 V, 1 ms, for 30 sec) and then again 20 minutes later. Cumulative change in skin blood flow was estimated by the area under the flux-time curve (AUC, which is equal to change in flux multiplied by change in time) for each flux response to electrical pulse stimulation. The average of the blood flow response to the two stimulations was taken. Animals were kept under anesthesia for a period of one to three hours.
For experiments shown in FIGS. 4A and 4B, saphenous nerve was exposed surgically before antibody administration. The saphenous nerve of the right hindlimb was exposed surgically, cut proximally and covered with plastic wrap to prevent drying. […] Skin blood flow, measured as blood cell flux, was monitored with a laser Doppler flow meter. […]

[3] = tested on: chronic migraine; experiment: Clinical study of antibody G1 in chronic migraine
[4] = target: T1, rat α-CGRP (Rattus norvegicus, UniProt P01256); experiment: Biacore affinity of antibody G1 and variant Fabs to rat α-CGRP; format: binding; conditions: 37° C.; Fab; screening mode unless underlined
T1 construct: 1-37 of rat α-CGRP (WT); purchased GenScript Corporation or Global Peptide Services (custom order); host or cells: synthetic peptide
T1 sequence (P01256 83-119 limits assumed): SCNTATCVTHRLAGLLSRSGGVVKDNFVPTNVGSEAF
Procedure: Biacore assay for affinity determination. […] All Biacore assays were conducted in HBS-EP running buffer (10 mM HEPES pH 7.4, 150 mM NaCl, 3 mM EDTA, 0.005% v/v polysorbate P20). CGRP surfaces were prepared by diluting the N-biotinylated CGRP to a concentration of less than 0.001 mg/mL into HBS-EP buffer and injecting it across the SA sensor chip using variable contact times. Low capacity surfaces, corresponding to capture levels <50 response units (RU) were used for high-resolution kinetic studies, whereas high capacity surfaces (about 800 RU of captured CGRP) were used for concentration studies, screening, and solution affinity determinations. […] Samples were typically injected for 1 minute at 100 μL/min and dissociation times of at least 10 minutes were allowed. After each binding cycle, surfaces were regenerated with 25 mM NaOH in 25% v/v ethanol, which was tolerated over hundreds of cycles. […]
High-resolution analysis of binding interactions with extremely slow offrates. […] The association rate constant (kon) was determined by injecting a 2-fold titration series (in duplicate) spanning 550 nM-1 nM for 30 sec at 100 uL/min and allowing only a 30 sec dissociation phase. The dissociation rate constant (koff) was determined by injecting three concentrations (high, medium, and low) of the same titration series in duplicate for 30 sec and allowing a 2-hour dissociation phase. […]

[5] = 900 mg group (n = 85), Change from Baseline to Month 1
[6] = 900 mg group (n = 85), Change from Baseline to Month 2
[7] = 900 mg group (n = 85), Change from Baseline to Month 3
[8] = 675/225 mg group (n = 87), Change from Baseline to Month 1
[9] = 675/225 mg group (n = 87), Change from Baseline to Month 2
[10] = 675/225 mg group (n = 87), Change from Baseline to Month 3

Molecule: NCCCC[C@H](NC(=O)[C@@H](Cc1cc(Br)c(O)c(Br)c1)NC(=O)N1CCC(N2Cc3ccccc3NC2=O)CC1)C(=O)N1CCN(c2ccncc2)CC1 [BIBN4096BS]
time after dosing within which MMA dilation is blocked ([1]; 300 μg/kg i.v.): ≤ 5 min | time by which the effect has completely disappeared ([1]; 300 μg/kg i.v.): ≤ 90 min | MMA dilation evoked by electrical field stimulation ([1]; 300 μg/kg i.v., acute): blocks

EC50 at 24 hours (dose required for 50% maximal effect) ([2]; i.v. 24 hours before stimulation, curve fit): 1.3 mg/kg | EC50 at 7 days (dose required for 50% maximal effect) ([2]; i.v. 7 days before stimulation, curve fit): 0.8 mg/kg
Molecule: G1: anti-CGRP antagonist antibody produced by expression vectors ATCC PTA-6867 and PTA-6866; VH SEQ ID NO:1, VL SEQ ID NO:2; modified human IgG2 [Clone G1]
blood flow increase stimulated by electronic pulses on saphenous nerve ([2]; 1 mg/kg i.v., stimulation at 90 min): significantly inhibited | blood flow increase stimulated by electronic pulses on saphenous nerve ([2]; 10 mg/kg i.v., stimulation at 90 and 120 minutes): significantly inhibited | blood flow increases in the dorso-medial hindpaw skin evoked by saphenous nerve stimulation ([2]; 10 mg/kg or 3 mg/kg i.v., 24 hours or 7 days prior to stimulation, vs vehicle): significantly inhibited | MMA dilation evoked by electrical stimulation ([1]; 10 mg/kg and 3 mg/kg i.v., 7 days prior, 10 to 20 volts, vs vehicle): significantly blocked | Days using acute medications, change from baseline, mean (SE) [3, 5]: −5.4 (0.7)** Days | Headache hours, change from baseline, mean (SE) [3, 5]: −56.8 (7.3)^+ hours | M/S Headache Days (days with moderate to severe headaches), change from baseline, mean (SE) [3, 5]: −5.7 (0.6)^+ Days | Migraine Days, change from baseline, mean (SE) [3, 5]: −6.3 (0.7)^+ Days | Days using acute medications, change from baseline, mean (SE) [3, 6]: −5.8 (0.7) Days | Headache hours, change from baseline, mean (SE) [3, 6]: −66.2 (8.1)^+ hours | M/S Headache Days (days with moderate to severe headaches), change from baseline, mean (SE) [3, 6]: −5.9 (0.6) Days | Migraine Days, change from baseline, mean (SE) [3, 6]: −6.7 (0.7)^ Days | Headache hours, change from baseline, mean (SE) [3, 7]: −67.5 (8.6)** hours | Migraine Days, change from baseline, mean (SE) [3, 7]: −7.1 (0.8)* Days | Subjects with >50% Decrease in M/S Headache days ([3]; 900 mg group, Month 1): 47 (55%)^+ N (%) | Subjects with >75% Decrease in M/S Headache days ([3]; 900 mg group, Month 1): 28 (33%)^+ N (%) | Subjects with >50% Decrease in M/S Headache days ([3]; 900 mg group, Month 2): 47 (55%)* N (%) | Subjects with >75% Decrease in M/S Headache days ([3]; 900 mg group, Month 2): 26 (31%) N (%) | Subjects with >50% Decrease in M/S Headache days ([3]; 900 mg group, Month 3): 47 (55%)^+ N (%) | Subjects with >75% Decrease in M/S Headache days ([3]; 900 mg group, Month 3): 27 (32%)* N (%) | Days using acute medications, change from baseline, mean (SE) [3, 8]: −5.3 (0.7)* Days | Headache hours, change from baseline, mean (SE) [3, 8]: −44.1 (7.3)** hours | M/S Headache Days (days with moderate to severe headaches), change from baseline, mean (SE) [3, 8]: −4.9 (0.6)** Days | Days using acute medications, change from baseline, mean (SE) [3, 9]: −6.6 (0.7)* Days | Headache hours, change from baseline, mean (SE) [3, 9]: −58.3 (8.1)* hours | M/S Headache Days (days with moderate to severe headaches), change from baseline, mean (SE) [3, 9]: −5.8 (0.6) Days | Migraine Days, change from baseline, mean (SE) [3, 9]: −6.6 (0.7) Days | Days using acute medications, change from baseline, mean (SE) [3, 10]: −6.6 (0.7)* Days | Headache hours, change from baseline, mean (SE) [3, 10]: −59.8 (8.6)* hours | M/S Headache Days (days with moderate to severe headaches), change from baseline, mean (SE) [3, 10]: −6.0 (0.7)* Days | Migraine Days, change from baseline, mean (SE) [3, 10]: −6.8 (0.8) Days | Subjects with >50% Decrease in M/S Headache days ([3]; 675/225 mg group, Month 1): 36 (41%)* N (%) | Subjects with >75% Decrease in M/S Headache days ([3]; 675/225 mg group, Month 1): 19 (22%)** N (%) | Subjects with >50% Decrease in M/S Headache days ([3]; 675/225 mg group, Month 2): 42 (48%) N (%) | Subjects with >75% Decrease in M/S Headache days ([3]; 675/225 mg group, Month 2): 26 (30%)* N (%) | Subjects with >50% Decrease in M/S Headache days ([3]; 675/225 mg group, Month 3): 46 (53%)** N (%) | Subjects with >75% Decrease in M/S Headache days ([3]; 675/225 mg group, Month 3): 25 (29%)* N (%) | Average number of headache hours at visits 2, 3 and 4 ([3]; both treatment groups vs placebo): significant decrease | number of headache hours in subjects using prevention medications ([3]; e.g. topiramate and amitriptyline or propranolol, relative to a placebo group): significant decrease

α-rat koff [4]: 0.0176 s⁻¹
B1: M84: G1 variant: L1 R28N T30V; L2 A51H L56T; H2 E54N A57N; HC-FW3 L99T A100V (antibody, V domains shown)
VH: EVQLVESGGGLVQPGGSLRLSCAASGFTFSNYWISWVRQAPGKGLEWVAEIRSNSDNSATHYAEAVKGRFTISRDNAKNSLYLQMNSLRAEDTAVYYCTVYFDYGLAIQNYWGQGTLVTVSS
VL: EIVLTQSPATLSLSPGERATLSCKASKNVVTYVSWYQQKPGQAPRLLIYGHSNRYTGIPARFSGSGSGTDFTLTISSLEPEDFAVYYCSQSYNYPYTFGQGTKLEIK
